“Also recorded” adds a separate entry of the source.
What was measured:
[1] = tested on: lipid rafts and fenestrations of LSECs; assay: 3D-SIM study of lipid rafts and fenestrations; format: cell-based
Excerpt: Sieve plates containing fenestrations are intercalated between thickened areas of membrane (lipid rafts).

[2] = tested on: actin cytoskeleton of LSECs; assay: dSTORM imaging of the actin cytoskeleton; format: cell-based; details: young mice
Procedure: dSTORM imaging was performed using an in-house microscope. LSECs were prepared for dSTORM by washing twice with PBS and fixation with 4% paraformaldehyde for 30 mins. Then LSECs were washed twice with PBS, permeabilised with Triton-X for 90 secs, blocked with 5% bovine serum albumin for 1 hour, and stained with Alexa Flour phalloidin 488 (1:40) for 20 min prior to imaging. Cells were washed using PBS with 0.1% Tween and placed in OxEA buffer (30) for dSTORM visualisation and image capture. The dSTORM used 488 and 647 nm excitation from diode-pumped lasers (Coherent Inc, CA, USA). Excitation was delivered via a 1.49NA 60× oil-immersion TIRF objective (Olympus Australia, AUS). Fluorescence was captured on two separate sCMOS cameras (Imaging Development Systems GmbH, Germany). Data was collected for up to 40,000 images at around 75 fps. 5-8 whole cell images were collected by a blinded observer for each treatment dosage and processed using rapidSTORM open source software (Wolter et al. Nat Methods 9: 1040, 2012.). Each image was examined for all sieve plates and actin structures. Densitometry measurements were performed using 5-8 dSTORM images with data analysis performed using Image J software (NIH, MD, USA).

fenestrations = details: young mice; cited from earlier work
LSEC fenestrations [3] = assay: SEM of LSEC fenestrations after drug treatments (Example 2, FIGS. 1-6); format: cell-based, mice; details: for change in fenestration porosity / change in fenestration frequency: Cytochalasin D 0.5 μg/ml, Amlodipine 20 ng/ml; for sieve plates and fenestration density on SEM images: young and old mice
Excerpt: Young and old C57B16 mice (n=3 young mice, age 3-4 and n=3 old mice, 20-24 months) were maintained under full SPF conditions and with ad libitum feeding. The study had the approval of the Sydney South West Area Health Service Animal Welfare Committee. Mice at 20-24 months are senescent. Animals were sacrificed withCO2 and livers immediately perfusion-fixed via a 23G needle inserted into the portal vein. Liver tissue was fixed with1% glutaraldehyde/4% para-formaldehyde in PBS (0.1M sucrose).
Drug treatments and dosages (shown superimposed on their corresponding image in FIGS. 1, and 2) were performed by incubating liver cells at 37° C., 5% CO2 for 30 mins using RPMI with or without dissolved drug. All images were taken by two blinded researchers using a SEM at 10,000×, scale bars of 1 μm are shown.
Each data point represents the average±SD of 8 images (as shown in FIGS. 1 and 2), 616-3312 fenestration raw data points were collected per treatment.

[4] = tested on: isolated LSECs (liver sinusoidal endothelial cells); assay: SEM of fenestrations in isolated LSECs from young and old mice after 30 min drug treatment (second Example 7); format: cell-based; details: for Diameter / Frequency / Porosity: 30 min; for effect on porosity and fenestration frequency (summary in words): young and old LSECs
Procedure: 3-4 and 18-24 month old male C57/B16 mice were obtained from the Animal Resource Centre in Perth, Western Australia. Animals were housed at the ANZAC Research Institute animal house on a 12 hour light/dark cycle and provided with ad libitum access to food and water. Mice were not fasted prior to euthanasia by a single intraperitoneal injection with 100 mg/kg ketamine and 10 mg/kg xylazine in saline. The study was approved by the Animal Welfare Committee of the Sydney Local Health District and was performed in accordance with the Australian Code of Practice for the care and use of animals for scientific research (AWC 2016/009). All information provided accords with the ARRIVE guidelines.
As described previously (Cogger et al. J e52698, 2015 https://dx.doi.org/10.3791/52698), mouse LSEC isolation was performed by perfusion of the liver with collagenase. Non-parenchymal cells were removed by a two-step Percoll gradient and Kupffer cells were removed by selective adherence to plastic. LSECs (seeded at 0.5×10^6 cells/cm2) were cultured (37° C., 5% CO2) in serum free RPMI-1640 for 3.5 hours before use.
Cells were treated with various agents for 30 minutes to determine effects on fenestrations. All agents were dissolved in serum-free RPMI media. All experiments were performed in triplicate for both young and old mice. Actin was disrupted with 0.5 μg/ml cytochalasin D and lipid rafts were disrupted with 3.6 and 1.8 μg/ml 7-keocholesterol; dosages were selected. […] The serotonergic/phospholipase C pathway was promoted with DOI (0.1 μg/ml) and endothelin receptors were inhibited by bosentan (550, 55 and 5.5 ng/ml) Death receptor 4 was promoted with TRAIL (100, 10. 1, 0.1 and 0.01 ng/ml) and NAD+ was promoted with NMN (5000, 50, 10, 1 and 0.1 μg/ml).
SEM was performed as previous described (Corbin et al J Biol Chem 274: 13729-13732, 1999.). LSECs were fixed in 2.5% glutaraldehyde in 0.1M sodium cacodylate buffer, osmicated, dehydrated in graded ethanol and hexamethyl disilazane, mounted on stubs, sputter coated with platinum and examined using a JEOL 6380 Scanning Electron Microscope (JEOL Ltd, Japan). Images at 10,000× magnification were collected by a blinded observer and used to measure fenestration diameter and LSEC porosity using Image J (NIH, MD, USA). […] Fenestrations less than 30 nm and gaps more than 300 nm were excluded from analysis. Porosity was defined as the percentage of the cell membrane covered with fenestrations. Frequency was defined at the number of fenestrations per […].
Individual specifications of analyses are described in figures legends. All data are presented as mean±SD. Experimental design and analysis were performed in accordance with the APS guidelines described in Curran-Everett and Benos DJ. Adv Physiol Educ 31: 295-298, 2007.

LSEC fenestrations [5] = assay: Acute defenestration by a single intraperitoneal injection of P407; format: in vivo
Excerpt: Acute loss of fenestrations, in the absence of other ageing changes, causes dyslipidaemia and insulin resistance Ageing is a complex process leading to impairment of many cellular pathways. To test the hypothesis that age-related loss of fenestrations contributes to dyslipidaemia and insulin resistance, the inventors aimed to evaluate the impact of acute defenestration in the absence of other ageing changes. […] P407 administration caused a 10-fold increase in circulating lipoproteins, especially triglycerides and chylomicron remnants, while preventing the transfer of small chylomicrons across the LSEC.

[6] = old mice, DOI 0.1 μg/ml, 7KC 9 μM
[7] = old mice, DOI 0.1 μg/ml, 7KC 9 μM, Bosentan 0.1 μM, Sildenafil 300 ng/ml
[8] = young mice, DOI 0.1 μg/ml, 7KC 9 μM

For `C=C1[C@@H](C)[C@H]2[C@H](Cc3ccccc3)NC(=O)[C@]23[C@H](OC(C)=O)/C=C/[C@@](C)(O)C(=O)[C@@H](C)C/C=C/[C@H]3[C@@H]1O` [Cytochalasin D, cytochalasin D], the “effect on fenestrations and lipid rafts” value [1] was “increased fenestrations and decreased rafts”, the “actin changes with drug treatments (dSTORM)” value [2] was “Disordered actin structure; also recorded: Dense actin plasma membrane; also recorded: Stress fibres; also recorded: Single isolated fenestrations” and the “actin changes with drug treatments (dSTORM)” value ([2]; listed as cytochalasin D) was “extensive actin staining of the plasma membrane; also recorded: loss of smooth fibres encircling the cytoplasm”. For the same molecule, the “fenestration porosity and diameter (previously reported)” value (fenestrations) was “increase fenestration porosity in young mice without any significant effects on fenestration diameter”, the “sieve plate grouping on SEM images” value (LSEC fenestrations [3]; old mice) was “greater fenestration sieve plate grouping” and the “change in fenestration porosity” value (LSEC fenestrations [3]; [6]) was “increased porosity”. The “change in fenestration frequency” value (LSEC fenestrations [3]; [7]) was “increased”, the “sieve plates and fenestration density on SEM images” value (LSEC fenestrations [3]) was “promoted increased fenestration density and maintained sieve plate fenestration clustering” and the “change in fenestration frequency” value (LSEC fenestrations [3]; young mice, Bosentan 0.1 μM, Sildenafil 300 ng/ml) was “increased”. The “change in fenestration porosity” value (LSEC fenestrations [3]; [8]) was “increased porosity”, the “fenestrations in LSECs from old mice” value ([4]; old mice) was “increased fenestrations” and the Diameter ([4]; old mice, 0.5 μg/ml) was 117.04 ± 9.26 nm. The Frequency ([4]; old mice, 0.5 μg/ml) was 3.39 ± 1.07 no/area, the Porosity ([4]; old mice, 0.5 μg/ml) was 3.82 ± 1.01% and the “effect on porosity and fenestration frequency (summary in words)” value [4] was “significantly increased frequency but not porosity in young and old LSECs”. The “Change in Porosity, Young” value ([4]; young mice, 0.5 μg/ml) was “↑ (ns)”, the Diameter ([4]; young mice, 0.5 μg/ml) was 126.78 ± 10.68 nm and the Frequency ([4]; young mice, 0.5 μg/ml) was 4.57 ± 0.51 no/area. It also gave a Porosity ([4]; young mice, 0.5 μg/ml) of 6.05 ± 0.62 % and an increase in porosity ([4]; young mice, not significant (P=0.08)) of 33%.

With poloxamer 407 [P407] the “increase in circulating lipoproteins” value (LSEC fenestrations [5]; especially triglycerides and chylomicron remnants) was 10 fold, the “passage of insulin across the LSEC” value (LSEC fenestrations [5]; in vivo) was “prevented the passage of insulin across the LSEC” and the loss of fenestrations (LSEC fenestrations [5]; within 24 hours of a single intraperitoneal injection) was 30-80%.

In the case of `CC(C)CCC[C@@H](C)[C@H]1CC[C@H]2[C@@H]3C(=O)C=C4C[C@@H](O)CC[C@]4(C)[C@H]3CC[C@]12C` [7-ketocholesterol], the “effect on fenestrations and lipid rafts” value [1] is listed as “increased fenestrations and decreased rafts”, the “fenestration porosity and diameter (previously reported)” value (fenestrations) is listed as “increase fenestration porosity in young mice without any significant effects on fenestration diameter” and the “diameter of fenestrations observed on SEM images” value (LSEC fenestrations [3]) is listed as “Increased diameter of fenestrations”. For the same molecule, the “change in fenestration diameter” value (LSEC fenestrations [3]; old mice, 7KC 4.5 μM, Bosentan 0.1 μM, Sildenafil 300 ng/ml, TRAIL 1 μg/ml) was “Increased fenestration diameter”, the “change in fenestration porosity” value (LSEC fenestrations [3]; [6]) was “increased porosity” and the “change in fenestration frequency” value (LSEC fenestrations [3]; [7]) was “increased”. The “sieve plates and fenestration density on SEM images” value (LSEC fenestrations [3]) was “promoted increased fenestrations but limited clearly definable sieve plates”, the “change in fenestration porosity” value (LSEC fenestrations [3]; [8]) was “increased porosity” and the gap formation [4] was “Gap formation was apparent”. The “increase in fenestration diameter” value [4] was 15 nm, the “fenestrations in LSECs from old mice” value ([4]; old mice) was “increased fenestrations” and the Diameter ([4]; old mice, 1.8 μg/ml) was 154.41 ± 13.07 nm. The Frequency ([4]; old mice, 1.8 μg/ml) was 2.65 ± 0.94 no/area, the Porosity ([4]; old mice, 1.8 μg/ml) was 5.19 ± 0.95 % and the Diameter ([4]; old mice, 3.6 μg/ml) was 139.46 ± 17.45 nm. For the same molecule, the Frequency ([4]; old mice, 3.6 μg/ml) was 3.15 ± 0.08 no/area, the Porosity ([4]; old mice, 3.6 μg/ml) was 5.34 ± 1.17 % and the “effect on porosity and fenestration frequency (summary in words)” value [4] was “significant increases in porosity and fenestration frequency in both young and old LSECs”. The “fenestration diameter” value ([4]; young and old mice, P<0.05) was “increased fenestration diameter in both young and old mice”, the Diameter ([4]; young mice, 1.8 μg/ml) was 142.35 ± 8.02 nm and the Frequency ([4]; young mice, 1.8 μg/ml) was 3.59 ± 0.78 no/area. For the same molecule, the Porosity ([4]; young mice, 1.8 μg/ml) was 6.10 ± 1.82%, the Diameter ([4]; young mice, 3.6 μg/ml) was 148.59 ± 7.70 nm and the Frequency ([4]; young mice, 3.6 μg/ml) was 4.36 ± 0.93 no/area. The Porosity ([4]; young mice, 3.6 μg/ml) was 8.03 ± 1.37 % and the “shift in frequency distribution of fenestration diameter” value ([4]; young mice, NMN 5000 μg/ml, 7-ketocholesterol 3.6 μg/ml) was “decreased 30-125 nm diameter fenestrations and an increase in 150-3000 sized fenestrations”.
